From EP1377579B1 (Aventis Pharmaceuticals Inc., priority 2000, dated 2002) come the findings set out here.

Read-outs that look alike come from different tables or passages of the source.

In one data set the test system is NCI-H460. Briefly: In vitro proliferation assay (MTT), NCI-H460. Type of data set: cell-based. The note with it: Homo sapiens. An outline of the steps: (§1)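 Plate 1000–2500 cells/well, RPMI 1640 + 5 % FBS, 3 mM L-glutamine; attach overnight → compound treatment 3 days → MTT, 37 C, 2–4 hr → remove medium, solubilize in DMSO → absorbance 570 nm → IC50.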
The next data set relates to HL-60. Briefly: In vitro proliferation assay (MTT), HL-60. Type of data set: cell-based. The note with it: Homo sapiens. An outline of the steps: as §1
The next data set concerns Jurkat. Briefly: In vitro proliferation assay (MTT), Jurkat. In kind it is cell-based. The note with it: Homo sapiens, read-out: Jurkat Leuk. (IC50 µM). The gist of the method:
as §1

Data set [1] deals with PC-3 Human Prostate Tumors. Briefly: PC-3 human prostate tumor xenograft in nude mice. In kind it is in vivo. Set-up: unit not given here. The procedure: Antitumor efficacy is assessed using two subcutaneous human tumor xenograft models. The studies are performed using conventional assay techniques. Briefly, HL-60 (leukemia, 5 x10^5 cells) and PC-3 (prostate, 5 x 10^6 cells) tumor cells are injected subcuateously into nude mice (Crl-CD1-Br-nu, Charles River Laboratory, Wilmington, MA). Dosing with compounds began when tumors reached 50 to 100 mm^3. The dose route/schedule for the test compounds is ip/qld (5x/wk). The test doses are set based on the maximum tolerated dose (MTD). […] The test doses for the efficacy studies are set at 1/3rd the MTD (low dose) and the MTD (high dose). The results are shown in Tables 4 and 5 (HL-60, leukemia) (PC-3, prostate cancer). The length of the treatment phase is dependent on the tumor growth rate for the two models. This treatment phase is typically about 3 weeks for the HL-60 model and about 5 weeks for the PC-3 model. […] Dosing with flavopiridol is for the same time frame as for the experimental compounds in both xenograft models. Tumor volume (twice weekly) and body weights (once weekly) are monitored throughout the course of the treatment phase of the experiment. Tumor sizes are measured by external caliper measurements of protruding tumor. Volumes are calculated using the following formula: volume =½ (a x b2), where b is the smaller of two perpendicular diameters.

The nature of data set [2]: Red blood cell binding, human whole blood. The note with it: 30 minutes at 37°C, 500 ng/ml. Type of data set: in vitro ADME. On the procedure:
Compounds, including one positive control, are assessed for red blood cell (RBC) uptake, using a modified procedure based on the protocol reported in Sun, J.X.S., et al. High-performance liquid chromatographic analysis, plasma protein binding and red blood cell partitioning of phenprobamate. Biopharmaceutics and Drug Disposition, 8 (1987) 341-351.
Briefly, RBC uptake is evaluated by comparison of the levels in spiked plasma (n=3) and plasma isolated from spiked whole blood (n=3). Compounds are incubated with human and mouse whole blood, respectively, for 30 minutes at 37°C using a nominal concentration of 500 ng/ml. Following centrifugation, the plasma is removed and submitted for analysis. Each compound is also spiked into blank plasma at a nominal concentration of 500 ng/ml, and submitted for analysis. Levels in the two plasma samples (Cp' and Cp in the equation below) and the blood hematocrit are used to determine the red blood cell to plasma ratio (Crbc/Cp). (Crbc)/(Cp) = (Cpʹ)/(Cp•H)-((1-H))/(H) [formula] In equation 1, Cp' is the level of drug in the spiked "blank" plasma, Cp is the level of drug in the plasma of spiked whole blood, and H is the hematocrit. The hematocrit values are determined as 0.4 for human whole blood and 0.41 for mouse whole blood. The samples are analyzed with ESI LC/MS, using positive ion detection with an internal standard.
The red blood cell to plasma ratio is determined for each compound using equation 1. Tables 6 and 7 summarize the respective mean Crbc/Cp values and standard deviations for mouse and human whole blood, respectively, in descending order based on the red blood cell to plasma ratio, where"*" denotes Positive Control, and "ND" denotes Not Determined. MDL 108552 is included as a positive control for red blood cell uptake. Table 6. Red Blood Cell to Plasma Ratio for compounds in mouse whole blood

In another data set the test system is Colo-205. The data set can be described thus: In vitro proliferation assay (MTT), Colo-205. Type of data set: cell-based. The note with it: Homo sapiens. An outline of the steps:
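Colo-205 cells were seeded at 1000–2500 cells/well and allowed to attach overnight, then exposed to compound for 3 days. Viable cells were measured by MTT reduction (2–4 h, 37 °C), with DMSO-solubilised dye read at 570 nm. IC50 was derived from concentration–response data.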

Where [3] appears, read: NCI-H460, MTT assay, value (SD, n) where given, read-out: H-460 Lung (IC50 µM).
[4] abbreviates: HL-60, MTT assay, value (SD, n) where given, read-out: HL-60 Leuk. (IC50 µM).
Where [5] appears, read: MTT assay, value (SD, n) where given.
Where [6] appears, read: COLO 205, MTT assay, value (SD, n) where given, read-out: Colo-205 Colon (IC50 µM).
Setting [7] is: NCI-H460, read-out: H-460 Lung (IC50 µM).
Setting [8] is: HL-60, read-out: HL-60 Leuk. (IC50 µM).
[9] abbreviates: COLO 205, read-out: Colo-205 Colon (IC50 µM).

As to `Cl.Cl.N[C@H]1CC[C@H](Nc2nc(NC3CCN(C(=O)c4cccc(C(F)(F)F)c4F)CC3)c3ncn(C4CCCC4)c3n2)CC1` [compound 12, trans-1-{4-[2-(4-Amino-cyclohexylamino)-9-cyclopentyl-9H-purin-6-ylamino]-piperidin-1-yl}-1-(2-fluoro-3-trifluoromethyl-phenyl)-methanone dihydrochloride], the IC50 was 0.38 µM in the data set on NCI-H460 (setting [3]), 0.16 µM in the data set on HL-60 (setting [4]), 0.48 µM in the data set on Jurkat (setting [5]) and 0.21 µM in the data set with Colo-205 (setting [6]). Also, the “PC-3 Mean Vol. ± SD” value worked out at 1063 ± 693 in data set [1] (Table 5, dose 3 mg/kg ip) and 1107 ± 606 in data set [1] (Table 5, dose 10 mg/kg ip). Moreover, the “Mean Red Blood Cell to Plasma Ratio” value in data set [2] was 3.6.

Regarding `Cl.Cl.N[C@H]1CC[C@H](Nc2nc(NC3CCN(C(=O)Oc4ccc(Br)cc4)CC3)c3ncn(C4CCCC4)c3n2)CC1` [compound 81, trans-4-[2-(4-Amino-cyclohexylamino)-9-cyclopentyl-9H-purin-6-ylamino]-piperidine-1-carboxylic acid 4-bromo-phenyl ester dihydrochloride], the IC50 in the data set with NCI-H460 (setting [7]) came out at 0.07 µM; with HL-60 (setting [8]), 0.02 µM; in the data set with Jurkat it was 0.1 µM; in the data set with Colo-205 (setting [9]), 0.03 µM. The “PC-3 Mean Vol. ± SD” value is reported as 1258 ± 523 in data set [1] (Table 5, dose 1 mg/kg ip) and 1007 ± 1120 in data set [1] (Table 5, dose 3 mg/kg ip). In data set [2], the “Mean Red Blood Cell to Plasma Ratio” value turned out to be 5.3.

As for `COC(=O)c1ccc(OC(=O)N2CCC(Nc3nc(N[C@H]4CC[C@H](N)CC4)nc4c3ncn4C3CCCC3)CC2)cc1.Cl.Cl` [compound 83, trans-4-[2-(4-Amino-cyclohexylamino)-9-cyclopentyl-9H-purin-6-ylamino]-piperidine-1-carboxylic acid 4-methoxycarbonyl-phenyl ester dihydrochloride], the IC50 with NCI-H460 (setting [7]) is 0.07 µM; in the data set with HL-60 (setting [8]), 0.06 µM; in the data set on Jurkat it was 0.14 µM; with Colo-205 (setting [9]), 0.07 µM. For the same compound, the “PC-3 Mean Vol. ± SD” value in data set [1] (Table 5, dose 3 mg/kg ip) is recorded as 899 ± 593; in data set [1] (Table 5, dose 10 mg/kg ip), 1426 ± 1131. In data set [2], the “Mean Red Blood Cell to Plasma Ratio” value was determined as 4.1.

On to `COc1ccc(OC(=O)N2CCC(Nc3nc(N[C@H]4CC[C@H](N)CC4)nc4c3ncn4C3CCCC3)CC2)cc1.Cl.Cl` [compound 84, trans-4-[2-(4-Amino-cyclohexylamino)-9-cyclopentyl-9H-purin-6-ylamino]-piperidine-1-carboxylic acid 4-methoxy-phenyl ester dihydrochloride], for which the IC50 in the data set with NCI-H460 (setting [7]) came out at 0.07 µM; in the data set on HL-60 (setting [8]), 0.04 µM; with Jurkat, 0.12 µM; in the data set on Colo-205 (setting [9]), 0.03 µM. The “PC-3 Mean Vol. ± SD” value in data set [1] (Table 5, dose 1 mg/kg ip) is on record as 770 ± 567; in data set [1] (Table 5, dose 3 mg/kg ip), 1386 ± 752. In data set [2], the “Mean Red Blood Cell to Plasma Ratio” value was 2.0.

With `Cl.Cl.N[C@H]1CC[C@H](Nc2nc(NC3CCN(C(=O)Oc4ccc(F)cc4)CC3)c3ncn(C4CCCC4)c3n2)CC1` [compound 87, trans-4-[2-(4-Amino-cyclohexylamino)-9-cyclopentyl-9H-purin-6-ylamino]-piperidine-1-carboxylic acid 4-fluoro-phenyl ester dihydrochloride], the IC50 with NCI-H460 (setting [7]) was found to be 0.08 µM; in the data set with HL-60 (setting [8]), 0.05 µM; in the data set on Jurkat it was 0.2 µM; in the data set with Colo-205 (setting [9]), 0.16 µM. Also, the “PC-3 Mean Vol. ± SD” value in data set [1] (Table 4, dose 1 mg/kg ip) came out at 3271 ± 2262; in data set [1] (Table 4, dose 3 mg/kg ip) it was 1396 ± 958. In addition, the “Mean Red Blood Cell to Plasma Ratio” value in data set [2] worked out at 8.4.

In the case of `Cl.Cl.N[C@H]1CC[C@H](Nc2nc(NC3CCN(C(=O)Oc4ccc(Cl)cc4)CC3)c3ncn(C4CCCC4)c3n2)CC1` [compound 88, trans-4-[2-(4-Amino-cyclohexylamino)-9-cyclopentyl-9H-purin-6-ylamino]-piperidine-1-carboxylic acid 4-chloro-phenyl ester dihydrochloride], the IC50 in the data set with NCI-H460 (setting [7]) came out at 0.06 µM; with HL-60 (setting [8]), 0.07 µM; with Jurkat, 0.02 µM; with Colo-205 (setting [9]), 0.04 µM. For the same compound, the “PC-3 Mean Vol. ± SD” value in data set [1] (Table 4, dose 1 mg/kg ip) turned out to be 1601 ± 1348; in data set [1] (Table 4, dose 3 mg/kg ip) it was 2278 ± 2110. Moreover, the “Mean Red Blood Cell to Plasma Ratio” value in data set [2] turned out to be 2.6.

Consider `Cl.Cl.N[C@H]1CC[C@H](Nc2nc(NC3CCN(C(=O)Oc4ccc([N+](=O)[O-])cc4)CC3)c3ncn(C4CCCC4)c3n2)CC1` [compound 89, trans-4-[2-(4-Amino-cyclohexylamino)-9-cyclopentyl-9H-purin-6-ylamino]-piperidine-1-carboxylic acid 4-nitro-phenyl ester dihydrochloride], for which the IC50 in the data set on NCI-H460 (setting [7]) amounted to 0.03 µM; with HL-60 (setting [8]), 0.02 µM; in the data set with Jurkat, 0.07 µM; with Colo-205 (setting [9]), 0.01 µM. In addition, the “PC-3 Mean Vol. ± SD” value in data set [1] (Table 4, dose 1 mg/kg ip) came to 2572 ± 1052; in data set [1] (Table 4, dose 3 mg/kg ip) it was 866 ± 384. Also, the “Mean Red Blood Cell to Plasma Ratio” value in data set [2] is listed as 4.2.

Consider `Cl.Cl.N[C@H]1CC[C@H](Nc2nc(NC3CCN(S(=O)(=O)c4ccc(F)cc4)CC3)c3ncn(C4CCCC4)c3n2)CC1` [compound 106, trans-N^2-(4-Amino-cyclohexyl)-9-cyclopentyl-N^6-[1-(4-fluoro-benzenesulfonyl)-piperidin-4-yl]-9H-purine-2,6-diamine dihydrochloride], for which the IC50 in the data set on NCI-H460 (setting [3]) worked out at 0.22 µM; in the data set with HL-60 (setting [4]), 0.1 µM; with Jurkat (setting [5]) it was 0.19 µM; with Colo-205 (setting [6]) it was 0.13 µM. Moreover, the “PC-3 Mean Vol. ± SD” value is given as 1860 ± 741 in data set [1] (Table 4, dose 1 mg/kg ip) and 1482 ± 906 in data set [1] (Table 4, dose 3 mg/kg ip). Besides, the “Mean Red Blood Cell to Plasma Ratio” value in data set [2] was determined as 3.9.

Turning to `Cl.Cl.N#Cc1ccc(S(=O)(=O)N2CCC(Nc3nc(N[C@H]4CC[C@H](N)CC4)nc4c3ncn4C3CCCC3)CC2)cc1` [compound 109, trans-N^2-(4-Amino-cyclohexyl)-9-cyclopentyl-N^6-[1-(4-cyano-benzenesulfonyl)-piperidin-4-yl]-9H-purine-2,6-diamine dihydrochloride], the IC50 is 0.25 µM with NCI-H460 (setting [3]), 0.12 µM in the data set with HL-60 (setting [4]), 0.44 µM with Jurkat (setting [5]) and 0.18 µM in the data set with Colo-205 (setting [6]). The “PC-3 Mean Vol. ± SD” value in data set [1] (Table 4, dose 3 mg/kg ip) stood at 1807 ± 1388; in data set [1] (Table 4, dose 10 mg/kg ip), 979 ± 734. Further, the “Mean Red Blood Cell to Plasma Ratio” value in data set [2] is on record as 5.0.

As to `COC(=O)c1ccccc1S(=O)(=O)N1CCC(Nc2nc(N[C@H]3CC[C@H](N)CC3)nc3c2ncn3C2CCCC2)CC1.Cl.Cl` [compound 111, trans-2-{4-[2-(4-Amino-cyclohexylamino)-9-cyclopentyl-9H-purin-6-ylamino]-piperidine-1-sulfonyl}-benzoic acid methyl ester dihydrochloride], the IC50 is 0.28 µM in the data set with NCI-H460 (setting [3]), 0.38 µM with HL-60 (setting [4]), 1.05 µM in the data set with Jurkat (setting [5]) and 0.09 µM in the data set on Colo-205 (setting [6]). For the same compound, the “PC-3 Mean Vol. ± SD” value in data set [1] (Table 4, dose 3 mg/kg ip) is 1083 ± 704; in data set [1] (Table 4, dose 10 mg/kg ip) it was 2114 ± 1320. The “Mean Red Blood Cell to Plasma Ratio” value in data set [2] came to 1.2.
